Experimental data reported in ChEMBL document CHEMBL4613212, “Insights of synthetic analogues of anti-leprosy agents” (Bioorg Med Chem, 2019).
≈ marks a conversion by molar mass, not a printed value.

Legend:
[1] = Cytotoxicity against LPS-induced human monocytes assessed as cell viability at 50 uM by tryphan blue staining based assay relative to control; design: species or system Monocyte; conditions: read-out: Activity
Monocyte [2] = test: Antiinflammatory activity in human monocytes assessed as inhibition of LPS-induced TNFaplha production at 50 uM preincubated for 15 mins followed by LPS addition and measured after 4 hrs by ELISA relative to control; type: functional
Mycobacterium leprae [3] = test: Anti-leprotic activity against Mycobacterium leprae infected in CBA mouse assessed as number of Mycobacterium leprae in paw pads at 30 mg/kg administrated 5 times a week and measured 7.5 months post infection (reference value: 3.91 +/- 0.33 10^5); type: functional
Mycobacterium leprae [4] = test: Anti-leprotic activity against Mycobacterium leprae infected in CBA mouse assessed as number of Mycobacterium leprae in paw pads at 10 mg/kg administrated 5 times a week and measured 7.5 months post infection (reference value: 3.91 +/- 0.33 10^5); type: functional
[5] = Drug excretion in rat urine at 400 mg/kg, sc administered as single dose measured after 30 days; type: ADME, organism-based; conditions: read-out: Drug excretion
Rattus norvegicus = test: Effect of metallo-protein haemoglobin in rat assessed as peak methemoglobin level at 400 mg/kg, sc administered as single dose; type: ADME, organism-based; conditions: in vivo
Plasmodium berghei = test: Antimalarial activity against Plasmodium berghei infected in albino mouse assessed survival against infection at 400 mg/kg, sc administered as single dose; type: functional
[6] = Drug concentration in rat blood at 400 mg/kg, sc administered as single dose; type: ADME, organism-based; conditions: in vivo
[7] = Half life in rat at 400 mg/kg, sc administered as single dose; type: ADME, organism-based; conditions: in vivo
Mycobacterium leprae [8] = test: Anti-leprotic activity against Mycobacterium leprae infected in albino mouse assessed survival against infection at 400 mg/kg, sc administered 58 days post-infection and subsequent compound dosing at 200 mg/kg at 0.5, 1 or 2 months interval; type: functional
Staphylococcus aureus = test: Antimicrobial activity against Staphylococcus aureus assessed as zone of inhibition incubated for 20 hrs by agar well diffusion assay; type: functional
Escherichia coli = test: Antimicrobial activity against Escherichia coli assessed as zone of inhibition incubated for 20 hrs by agar well diffusion assay; type: functional
[9] = test system: Mycolicibacterium smegmatis; test: Antimicrobial activity against Mycobacterium smegmatis incubated for 30 to 32 hrs under shaking condition relative to control; type: functional
[10] = test system: Mycolicibacterium smegmatis; test: Antimicrobial activity against Mycobacterium smegmatis incubated for 30 to 32 hrs under shaking condition; type: functional
[11] = test system: Mycolicibacterium fortuitum; test: Antimicrobial activity against Mycobacterium fortuitum incubated for 24 hrs by broth microdilution assay; type: functional
Mycolicibacterium vaccae = test: Antimicrobial activity against Mycobacterium vaccae incubated for 24 hrs by broth microdilution assay; type: functional
Mycobacterium leprae [12] = test: Anti-leprotic activity against Mycobacterium leprae infected in 538 CBA mouse assessed as number of Mycobacterium leprae in paw pads at 6 mg/kg administrated via gastric tube 5 times a week and measured 7 months post infection; type: functional
[13] = test system: Mycolicibacterium smegmatis; test: Antimicrobial activity against Mycobacterium smegmatis incubated for 24 hrs by broth microdilution assay; type: functional
Mycolicibacterium aurum = test: Antimicrobial activity against Mycobacterium aurum incubated for 24 hrs by broth microdilution assay; type: functional
Mycobacterium leprae [14] = test: Anti-leprotic activity against Mycobacterium leprae infected in 538 CBA mouse assessed as number of Mycobacterium leprae in paw pads at 2 mg/kg administrated via gastric tube 5 times a week and measured 7 months post infection; type: functional
[15] = test system: Mycobacterium tuberculosis; test: Antitubercular activity against Mycobacterium tuberculosis H37Rv ATCC 27294 assessed as growth inhibition at 6.25 ug/ml by microplate alamar blue assay relative to control; type: functional
[16] = Selectivity index, ratio of IC50 for African green monkey Vero cells to MIC for antitubercular activity against Mycobacterium tuberculosis H37Rv; type: toxicity; conditions: Vero cells, read-out: Selectivity Index
[17] = test system: Mycolicibacterium smegmatis; test: Antimycobacterial activity against Mycobacterium smegmatis mc2 155 incubated for 2 days by spectrophotometric based assay; type: functional; conditions: MC2 155, 48 h
[18] = test system: Mycobacterium tuberculosis; test: Antitubercular activity against Mycobacterium tuberculosis H37Rv ATCC 27294 assessed as inhibition of [3H]-thymidine incorporation relative to control; type: functional
Monocyte [19] = test: Antiinflammatory activity in human monocytes assessed as inhibition of LPS-induced TNFaplha production at 25 uM preincubated for 15 mins followed by LPS addition and measured after 4 hrs by ELISA relative to control; type: functional

Work on `O=C1c2c(F)c(F)c(F)c(F)c2C(=O)N1c1cnc(O)nc1O` yielded a viability at 50 µM [1] of 95% and an inhibition at 50 µM (Monocyte [2]) of under 10%.
For `CN(C)C(=S)Sc1c(C#N)cc([N+](=O)[O-])cc1[N+](=O)[O-]`, the Activity (Mycobacterium leprae [3]) was 0.77 ×10⁵ No_unit and the Activity (Mycobacterium leprae [4]) was 0.83 ×10⁵ No_unit.
With `CC(=O)Nc1ccc(S(=O)(=O)c2ccc(NC(C)=O)c(C)c2)cc1` the dose excreted at 720 h [5] was 31%, the Activity (Rattus norvegicus) was 1 g/dL and the Survival (Plasmodium berghei) was 9 weeks. It also gave a Drug uptake [6] of 0.7 µg/mL, a half-life [7] of 35 days and a Survival (Mycobacterium leprae [8]) of over 8 weeks.
In the case of `C[C@@H](O)[C@H]1C(=N)N2C(C(=O)O)=C(SCCNC=N)C[C@H]12`, the “diameter of the inhibition zone (DIZ)” value (Staphylococcus aureus) is reported as 25 mm and the “diameter of the inhibition zone (DIZ)” value (Escherichia coli) is reported as 27 mm.
`CCn1cc(C(=O)N/N=C\c2c(Cl)cccc2Cl)c(=O)c2cc(F)c(N3CCN(C)CC3)cc21` gave an Activity [9] of over 30% and an MIC [10] of 27 µM (≈ 13.6 µg/mL).
`Nc1ccc(F)c(F)c1` gave a viability at 50 µM [1] of 99% and an inhibition at 50 µM (Monocyte [2]) of 19%.
With `C[C@@H](O)[C@H]1C(=O)N2C(C(=O)O)=C(SCCNC=N)C[C@H]12` [IMIPENEM ANHYDROUS] the “diameter of the inhibition zone (DIZ)” value (Staphylococcus aureus) was 31 mm and the “diameter of the inhibition zone (DIZ)” value (Escherichia coli) was 35 mm.
Work on `N#Cc1cc([N+](=O)[O-])cnc1SC(=S)N1CCCC1` yielded an MIC [11] of 1.56 µg/mL (≈ 5.3 µM), an MIC (Mycolicibacterium vaccae) of 1.56 µg/mL (≈ 5.3 µM) and an Activity (Mycobacterium leprae [12]) of 0.28 ×10⁷ No_unit. It also gave an MIC [13] of 3.12 µg/mL (≈ 10.6 µM), an MIC (Mycolicibacterium aurum) of 1.56 µg/mL (≈ 5.3 µM) and an Activity (Mycobacterium leprae [14]) of 0.56 ×10⁷ No_unit.
For `CCC1(N2C(=O)c3ccccc3C2=O)C(=O)NC(=O)N(C2CCCCC2)C1=O` (stereo not given), the viability at 50 µM [1] was 87% and the inhibition at 50 µM (Monocyte [2]) was under 10%.
In the case of `COc1ncnc(SC(=S)N2CCCC2)c1[N+](=O)[O-]`, the MIC [11] is reported as 1.56 µg/mL (≈ 5.19 µM), the MIC (Mycolicibacterium vaccae) is reported as 0.8 µg/mL (≈ 2.66 µM) and the Activity (Mycobacterium leprae [12]) is reported as 0.029 ×10⁷ No_unit. For the same compound, the MIC [13] was 3.12 µg/mL (≈ 10.4 µM), the MIC (Mycolicibacterium aurum) was 1.56 µg/mL (≈ 5.19 µM) and the Activity (Mycobacterium leprae [14]) was 0.07 ×10⁷ No_unit.
In the case of `Clc1nc(-c2cccs2)c2ncn(Cc3ccccc3)c2n1`, the inhibition at 6.25 µg/mL [15] is reported as over 90% and the selectivity ratio [16] is reported as over 6.4.
Compound `CCC1(N2C(=O)c3c(F)c(F)c(F)c(F)c3C2=O)C(=O)NC(=O)N(c2ccccc2)C1=O` (stereo not given) has a viability at 50 µM [1] of 68% and an inhibition at 50 µM (Monocyte [2]) of 16%.
With `CCCCCCCCC(COC1CCCC1)C(=O)O` (stereo not given) the MIC99 [17] was 3600 µM (≈ 973 µg/mL).
With `CC(=O)Nc1ccc(S(=O)(=O)c2ccc(/N=C/c3ccc(/C=N/c4ccc(S(=O)(=O)c5ccc(NC(C)=O)cc5)cc4)cc3)cc2)cc1` the dose excreted at 720 h [5] was 40%, the Activity (Rattus norvegicus) was 0.2 g/dL and the Survival (Plasmodium berghei) was 5 - 7 weeks. For the same compound, the Drug uptake [6] was 0.4 µg/mL, the half-life [7] was 55 days and the Survival (Mycobacterium leprae [8]) was over 8 weeks.
In the case of `O=C1c2c(F)c(F)c(F)c(F)c2C(=O)N1c1cn(-c2ccccc2)c(=O)[nH]c1=O`, the viability at 50 µM [1] is reported as 95% and the inhibition at 50 µM (Monocyte [2]) is reported as under 10%.
In the case of `c1ccc(Cn2cnc3c(-c4ccco4)ncnc32)cc1` [9-BENZYL-6-(FURAN-2-YL)-9H-PURINE], the inhibition at 6.25 µg/mL [15] is reported as over 90%, the “inhibition (INH)” value [18] is reported as 59% and the selectivity ratio [16] is reported as 2.7.
`CCn1cc(C(=O)N/N=C\c2cccc(O)c2)c(=O)c2cc(F)c(N3CCN(C)CC3)cc21` showed an Activity [9] of over 30% and an MIC [10] of 27.2 µM (≈ 12.3 µg/mL).
Work on `O=C1c2ccccc2C(=O)N1c1ccc(S(=O)(=O)Nc2ccncn2)cc1` yielded an MIC99 [17] of 2300 µM (≈ 875 µg/mL).
For `O=C1c2ccccc2C(=O)N1c1ccc(S(=O)(=O)Nc2cnccn2)cc1`, the MIC99 [17] was 6800 µM (≈ 2590 µg/mL).
In the case of `CC(=O)Nc1ccc(S(=O)(=O)c2ccc(NC(C)=O)cc2)cc1` [ACEDAPSONE], the dose excreted at 720 h [5] is reported as 7%, the Activity (Rattus norvegicus) is reported as 0 g/dL and the Survival (Plasmodium berghei) is reported as 12 weeks. It also gave a Drug uptake [6] of 0.2 µg/mL, a half-life [7] of over 200 days and a Survival (Mycobacterium leprae [8]) of over 8 weeks.
`COc1cc(Sc2cnc(N)nc2N)cc(OC)c1Br` showed an Activity (Mycobacterium leprae [12]) of 0.02 ×10⁷ No_unit and an Activity (Mycobacterium leprae [14]) of 0.66 ×10⁷ No_unit.
`CN(C)C(=S)Sc1c([N+](=O)[O-])cc([N+](=O)[O-])nc1C#N` gave an Activity (Mycobacterium leprae [3]) of 1.83 ×10⁵ No_unit and an Activity (Mycobacterium leprae [4]) of 2.13 ×10⁵ No_unit.
`O=C1CCC(N2C(=O)c3ccccc3C2=O)C(=O)N1` (stereo not given) [THALIDOMIDE] showed a viability at 50 µM [1] of 98%, an inhibition at 50 µM (Monocyte [2]) of 15% and an inhibition at 25 µM (Monocyte [19]) of under 10%.
